Source: US12404241B2 (Celgene Corporation, priority 2018, dated 2025)
Structures can show the parent of a compound that is named as a salt.

Molecular target: T1, AR (Homo sapiens, UniProt P10275)
T1 construct: endogenous in cells; host or cells: VCaP cells
T1 sequence (P10275 1-920): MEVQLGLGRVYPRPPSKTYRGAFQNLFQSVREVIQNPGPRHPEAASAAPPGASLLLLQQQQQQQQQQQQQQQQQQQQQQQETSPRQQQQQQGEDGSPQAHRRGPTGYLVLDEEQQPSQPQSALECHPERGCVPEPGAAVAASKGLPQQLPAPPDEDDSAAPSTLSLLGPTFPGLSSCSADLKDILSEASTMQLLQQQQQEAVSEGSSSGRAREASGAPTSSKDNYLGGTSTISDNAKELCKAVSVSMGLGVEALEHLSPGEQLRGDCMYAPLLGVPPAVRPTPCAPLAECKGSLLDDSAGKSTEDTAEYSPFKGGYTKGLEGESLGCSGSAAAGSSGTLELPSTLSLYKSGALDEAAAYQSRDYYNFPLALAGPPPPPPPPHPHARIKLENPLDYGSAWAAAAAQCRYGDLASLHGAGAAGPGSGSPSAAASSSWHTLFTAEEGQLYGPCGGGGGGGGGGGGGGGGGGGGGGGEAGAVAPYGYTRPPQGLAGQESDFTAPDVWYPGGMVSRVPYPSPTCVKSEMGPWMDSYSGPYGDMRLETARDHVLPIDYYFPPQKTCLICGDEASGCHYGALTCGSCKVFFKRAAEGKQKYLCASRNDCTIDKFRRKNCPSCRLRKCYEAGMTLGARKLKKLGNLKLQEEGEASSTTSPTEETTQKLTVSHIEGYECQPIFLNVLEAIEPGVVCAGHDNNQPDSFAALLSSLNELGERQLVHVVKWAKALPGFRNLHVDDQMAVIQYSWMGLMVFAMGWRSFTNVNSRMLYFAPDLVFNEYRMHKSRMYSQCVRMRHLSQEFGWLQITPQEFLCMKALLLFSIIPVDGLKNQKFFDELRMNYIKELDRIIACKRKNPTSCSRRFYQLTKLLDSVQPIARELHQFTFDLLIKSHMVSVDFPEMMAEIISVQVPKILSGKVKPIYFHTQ
Assay: VCAP AR Degradation Assay
Assay type: cell-based
Conditions: for Y (AR degradation efficiency, % of DMSO control): class symbols *; for DC50: class symbols A-C, read-out: DC50
In short: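 24 h, 37 °C, VCaP (DMEM/8% FBS), 10-pt 1:3 dilutions from 5 μM final top, 0.1% DMSO ctrl. Lysis on ice/4 °C 1 h; total AR by sandwich ELISA, normalized to DMSO. 4PL fit → DC50, EC50, Y (min AR level).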

SMILES	Y (AR degradation efficiency, % of DMSO control)	DC50
CC1(C)C(=O)N(c2ccc(C#N)c(C(F)(F)F)c2)C(=S)N1c1ccc(OCCN2CCN(CC(=O)Nc3cccc(NC4CCC(=O)NC4=O)c3)[C@H](C(F)(F)F)C2)c(C2CC2)c1 (stereo partly drawn) [Example 245, 2-((S)-4-(2-(4-(3-(4-cyano-3-(trifluoromethyl)phenyl)-5,5-dimethyl-4-oxo-2-thioxoimidazolidin-1-yl)-2-cyclopropylphenoxy)ethyl)-2-(trifluoromethyl)piperazin-1-yl)-N-(3-(2,6-dioxopiperidin-3-ylamino)phenyl)acetamide]	* (0<Y<=25%)	< 100 nM
CCc1cc(N2C(=S)N(c3ccc(C#N)c(C(F)(F)F)c3)C(=O)C2(C)C)ccc1CCCN1CCN(CC(=O)Nc2cc(Cl)cc(NC3CCC(=O)NC3=O)c2)CC1 (stereo not drawn) [Example 89, N-(3-chloro-5-(2,6-dioxopiperidin-3-ylamino)phenyl)-2-(4-(3-(4-(3-(4-cyano-3-(trifluoromethyl)phenyl)-5,5-dimethyl-4-oxo-2-thioxoimidazolidin-1-yl)-2-ethylphenyl)propyl)piperazin-1-yl)acetamide]	* (0<Y<=25%)	< 100 nM
CCCc1cc(N2C(=S)N(c3ccc(C#N)c(C(F)(F)F)c3)C(=O)C2(C)C)ccc1OCCN1CCN(CC(=O)Nc2cccc(NC3CCC(=O)NC3=O)c2)CC1 (stereo not drawn) [Example 34, hydrochloride]	* (0<Y<=25%)	< 100 nM
CCc1cc(N2C(=S)N(c3cnc(C#N)c(C(F)(F)F)c3)C(=O)C2(C)C)ccc1OCCN1C[C@@H]2C[C@H]1CN2CC(=O)Nc1cc(Cl)cc(NC2CCC(=O)NC2=O)c1 (stereo partly drawn) [Example 115, N-(3-chloro-5-(2,6-dioxopiperidin-3-ylamino)phenyl)-2-((1S,4S)-5-(2-(4-(3-(6-cyano-5-(trifluoromethyl)pyridin-3-yl)-5,5-dimethyl-4-oxo-2-thioxoimidazolidin-1-yl)-2-ethylphenoxy)ethyl)-2,5-diazabicyclo[2.2.1]heptan-2-yl)acetamide]	** (25%<Y<=35%)	100 to 500 nM
CC1(C)C(=O)N(c2ccc(C#N)c(C(F)(F)F)c2)C(=S)N1c1ccc(OCCN2CCN(CC(=O)Nc3cc(NC4CCC(=O)NC4=O)ccc3F)CC2)c(CC(F)F)c1 (stereo not drawn) [Example 174, 2-(4-(2-(4-(3-(4-cyano-3-(trifluoromethyl)phenyl)-5,5-dimethyl-4-oxo-2-thioxoimidazolidin-1-yl)-2-(2,2-difluoroethyl)phenoxy)ethyl)piperazin-1-yl)-N-(5-(2,6-dioxopiperidin-3-ylamino)-2-fluorophenyl)acetamide]	* (0<Y<=25%)	< 100 nM
CC1(C)C(=O)N(c2ccc(C#N)c(C(F)(F)F)c2)C(=S)N1c1ccc(OCCN2CCN(CC(=O)Nc3cccc(NC4CCC(=O)NC4=O)c3)CC2)c(CCF)c1 (stereo not drawn) [Example 160, 2-(4-(2-(4-(3-(4-cyano-3-(trifluoromethyl)phenyl)-5,5-dimethyl-4-oxo-2-thioxoimidazolidin-1-yl)-2-(2-fluoroethyl)phenoxy)ethyl)piperazin-1-yl)-N-(3-(2,6-dioxopiperidin-3-ylamino)phenyl)acetamide]	* (0<Y<=25%)	< 100 nM
CC(C)c1cc(N2C(=S)N(c3ccc(C#N)c(C(F)(F)F)c3)C(=O)C2(C)C)cnc1OCCN1C[C@@H](C)N(CC(=O)Nc2cc(Cl)cc(NC3CCC(=O)NC3=O)c2)C[C@H]1C (stereo partly drawn) [Example 214, N-(3-chloro-5-(2,6-dioxopiperidin-3-ylamino)phenyl)-2-((2R,5R)-4-(2-(5-(3-(4-cyano-3-(trifluoromethyl)phenyl)-5,5-dimethyl-4-oxo-2-thioxoimidazolidin-1-yl)-3-isopropylpyridin-2-yloxy)ethyl)-2,5-dimethylpiperazin-1-yl)acetamide]	** (25%<Y<=35%)	100 to 500 nM
CCc1cc(N2C(=S)N(c3ccc(C#N)c(C(F)(F)F)c3)C(=O)C23CCC3)ccc1OCCN1CCN(CC(=O)Nc2cccc(NC3CCC(=O)NC3=O)c2)[C@H](C)C1 (stereo partly drawn) [Example 105, 2-((R)-4-(2-(4-(7-(4-cyano-3-(trifluoromethyl)phenyl)-8-oxo-6-thioxo-5,7-diazaspiro[3.4]octan-5-yl)-2-ethylphenoxy)ethyl)-2-methylpiperazin-1-yl)-N-(3-(2,6-dioxopiperidin-3-ylamino)phenyl)acetamide]	* (0<Y<=25%)	< 100 nM
C[C@@H]1CN(CCOc2ccc(N3C(=S)N(c4cnc(C#N)c(C(F)(F)F)c4)C(=O)C34CCC4)cc2C2CC2)C[C@H](C)N1CC(=O)Nc1cc(NC2CCC(=O)NC2=O)ccc1F (stereo partly drawn) [Example 198, 2-((2S,6R)-4-(2-(4-(7-(6-cyano-5-(trifluoromethyl)pyridin-3-yl)-8-oxo-6-thioxo-5,7-diazaspiro[3.4]octan-5-yl)-2-cyclopropylphenoxy)ethyl)-2,6-dimethylpiperazin-1-yl)-N-(5-(2,6-dioxopiperidin-3-ylamino)-2-fluorophenyl)acetamide]	* (0<Y<=25%)	< 100 nM
CCc1cc(N2C(=S)N(c3ccc(C#N)c(C(F)(F)F)c3)C(=O)C2(C)C)ccc1OCCN1C[C@@H](C)N(CC(=O)Nc2cc(Cl)cc(NC3CCC(=O)NC3=O)c2)[C@H](C)C1 (stereo partly drawn) [Example 130, N-(3-chloro-5-(2,6-dioxopiperidin-3-ylamino)phenyl)-2-((2R,6R)-4-(2-(4-(3-(4-cyano-3-(trifluoromethyl)phenyl)-5,5-dimethyl-4-oxo-2-thioxoimidazolidin-1-yl)-2-ethylphenoxy)ethyl)-2,6-dimethylpiperazin-1-yl)acetamide]	* (0<Y<=25%)	< 100 nM
CCc1cc(N2C(=S)N(c3cnc(C#N)c(C(F)(F)F)c3)C(=O)C2(C)C)ccc1OCCN1CCN(CC(=O)Nc2cccc(NC3CCC(=O)NC3=O)c2)[C@@H](C(F)(F)F)C1 (stereo partly drawn) [Example 200, 2-((R)-4-(2-(4-(3-(6-cyano-5-(trifluoromethyl)pyridin-3-yl)-5,5-dimethyl-4-oxo-2-thioxoimidazolidin-1-yl)-2-ethylphenoxy)ethyl)-2-(trifluoromethyl)piperazin-1-yl)-N-(3-(2,6-dioxopiperidin-3-ylamino)phenyl)acetamide]	* (0<Y<=25%)	< 100 nM
C[C@@H]1CN(CCOc2ccc(N3C(=S)N(c4cnc(C#N)c(C(F)(F)F)c4)C(=O)C34CCC4)cc2C2CC2)C[C@H](C)N1CC(=O)Nc1cc(C#N)cc(NC2CCC(=O)NC2=O)c1 (stereo partly drawn) [Example 212, N-(3-cyano-5-(2,6-dioxopiperidin-3-ylamino)phenyl)-2-((2S,6R)-4-(2-(4-(7-(6-cyano-5-(trifluoromethyl)pyridin-3-yl)-8-oxo-6-thioxo-5,7-diazaspiro[3.4]octan-5-yl)-2-cyclopropylphenoxy)ethyl)-2,6-dimethylpiperazin-1-yl)acetamide]	* (0<Y<=25%)	< 100 nM
CCc1cc(N2C(=S)N(c3ccc(C#N)c(Cl)c3)C(=O)C2(C)C)ccc1OCCN1C[C@@H](C)N(CC(=O)Nc2cccc(NC3CCC(=O)NC3=O)c2)[C@@H](C)C1 (stereo partly drawn) [Example 291, 2-((2S,6R)-4-(2-(4-(3-(3-chloro-4-cyanophenyl)-5,5-dimethyl-4-oxo-2-thioxoimidazolidin-1-yl)-2-ethylphenoxy)ethyl)-2,6-dimethylpiperazin-1-yl)-N-(3-((2,6-dioxopiperidin-3-yl)amino)phenyl)acetamide]	* (0<Y<=25%)	< 100 nM
CCc1cc(N2C(=S)N(c3cnc(C#N)c(C(F)(F)F)c3)C(=O)C2(C)C)ccc1OCCN1CCN(CC(=O)Nc2cccc(NC3CCC(=O)NC3=O)c2)[C@H](C(F)(F)F)C1 (stereo partly drawn) [Example 201, 2-((S)-4-(2-(4-(3-(6-cyano-5-(trifluoromethyl)pyridin-3-yl)-5,5-dimethyl-4-oxo-2-thioxoimidazolidin-1-yl)-2-ethylphenoxy)ethyl)-2-(trifluoromethyl)piperazin-1-yl)-N-(3-(2,6-dioxopiperidin-3-ylamino)phenyl)acetamide]	* (0<Y<=25%)	< 100 nM
CC(C)c1cc(N2C(=S)N(c3cnc(C#N)c(C(F)(F)F)c3)C(=O)C2(C)C)ccc1OCCN1CCN(CC(=O)Nc2cc(Cl)cc(NC3CCC(=O)NC3=O)c2)CC1 (stereo not drawn) [Example 93, N-(3-chloro-5-(2,6-dioxopiperidin-3-ylamino)phenyl)-2-(4-(2-(4-(3-(6-cyano-5-(trifluoromethyl)pyridin-3-yl)-5,5-dimethyl-4-oxo-2-thioxoimidazolidin-1-yl)-2-isopropylphenoxy)ethyl)piperazin-1-yl)acetamide]	* (0<Y<=25%)	< 100 nM
